# Assay results from patent publication US12083102B2, “Method for treating inflammatory disorders” (DIMERIX BIOSCIENCE PTY LTD, priority 2011, dated 2024).
# “Also recorded” adds a separate entry of the source.
# Experiments:
# diabetic nephropathy = settings: patients; Lewis (1993); cited from earlier work
# [1] = biological target: T1, AT1R-Rluc8 and the untagged CCR2 (Homo sapiens, UniProt P30556+P41597); assay type: cell-based; settings: HEK293FT cells, FIG. 5 bottom; for MCP-1-induced BRET, AT1R-Rluc8, β-arrestin2-Venus and untagged CCR2: 100 nM MCP-1
# T1 construct: expressed in transfected cells; host or cells: HEK293FT
# From the text: (§3) Data represent mean±SEM of three independent experiments performed in triplicate.
# HEK293FT cells were transiently transfected with plasmids coding for β-arrestin2-Venus and the indicated receptors: CCR2-Rluc8 (top panel), AT1R-Rluc8 (middle panel) or AT1R-Rluc8 and the untagged CCR2 (bottom panel).
# AT1R-Rluc8 and CCR2 [2] = biological target: T2, AT1R-Rluc8 and CCR2 (Homo sapiens, UniProt P30556+P41597); test: Inositol phosphate (IP1) production (Example 6, bottom panel); assay type: cell-based; settings: HEK293FT cells, FIG. 8 bottom
# T2 construct: expressed in transfected cells; host or cells: HEK293FT
# Protocol: (§1) Data are shown as induced IP1 (arbitrary units).
# (§2) The cells were then lysed by adding the HTRF® assay reagents, the Terbium Cryptate-labeled anti-IP1 antibody, and the d2-labeled IP1 analog, previously diluted in the lysis buffer containing 1% Triton X-100. The assay was incubated for 1 hour at room temperature, and Terbium Cryptate fluorescence and the time resolved FRET signal were measured 50 μs after excitation at 340, 620, and 665 nm, respectively, using the EnVision 2102 multilabel plate reader (PerkinElmer). Data are shown as induced IP1 (arbitrary units). The IP-One Tb kit is a competition assay and so induction of IP1 results in a decrease in absolute assay signal. Therefore, the induced IP1 (arbitrary units) is generated by subtracting the ligand-induced assay signal from the basal assay signal.
# AT1R-Rluc8 and CCR2 [3] = biological target: T2, AT1R-Rluc8 and CCR2; test: Inositol phosphate (IP1) production (Example 4, bottom panel); assay type: cell-based; settings: HEK293FT cells, FIG. 6 bottom; for AngII-induced IP1 production, cells co-expressing AT1R-Rluc8 and CCR2 / MCP-1-induced IP1 production, cells co-expressing AT1R-Rluc8 and CCR2: antagonist 10 μM; for AngII-induced IP1 production, cells co-expressing AT1R-Rluc8 and CCR2: 100 nM AngII; for MCP-1-induced IP1 production, cells co-expressing AT1R-Rluc8 and CCR2: 100 nM MCP-1
# From the text: as §3
# MCP-1 = settings: Yokochi (2001); Yamada (2004); cited from earlier work
# monocytes = settings: Yokochi (2001); cited from earlier work
# [4] = system: mouse models of multiple sclerosis, renal ischemia-reperfusion injury, ureter obstruction, diabetic nephropathy; rat model of arthritis; settings: Tesch (2008); cited from earlier work
# [5] = biological target: CCR2-Rluc8 and HA-tagged AT1R (Homo sapiens, UniProt P30556+P41597); settings: HEK293FT cells, FIG. 7 bottom; for MCP-1-induced BRET, CCR2-Rluc8, β-arrestin2-Venus and HA-tagged AT1R: 100 nM MCP-1
# AT1R-Rluc8 [6] = biological target: T3, AT1R-Rluc8 (Homo sapiens, UniProt P30556); test: Inositol phosphate (IP1) production (Example 4, top panel); assay type: cell-based; settings: HEK293FT cells; antagonist 10 μM; 100 nM AngII; no CCR2; FIG. 6 top
# T3 construct: expressed in transfected cells; host or cells: HEK293FT
# T3 sequence (P30556 1-359): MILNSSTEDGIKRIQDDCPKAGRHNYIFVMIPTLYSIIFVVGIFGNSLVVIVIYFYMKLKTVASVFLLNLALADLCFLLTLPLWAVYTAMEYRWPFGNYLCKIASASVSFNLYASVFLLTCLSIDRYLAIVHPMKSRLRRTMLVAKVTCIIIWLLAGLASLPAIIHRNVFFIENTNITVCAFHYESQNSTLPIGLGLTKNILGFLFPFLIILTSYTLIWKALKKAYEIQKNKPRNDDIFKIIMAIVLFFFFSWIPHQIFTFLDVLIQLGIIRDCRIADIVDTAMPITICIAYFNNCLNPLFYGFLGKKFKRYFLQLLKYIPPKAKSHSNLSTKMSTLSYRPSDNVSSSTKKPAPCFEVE
# AT1R-Rluc8 [7] = biological target: T3, AT1R-Rluc8; assay type: cell-based; settings: HEK293FT cells; antagonist 10 μM; 100 nM AngII; FIG. 5 middle
# AT1R-Rluc8 [8] = biological target: T3, AT1R-Rluc8; test: Inositol phosphate (IP1) production (Example 6, top panel); assay type: cell-based; settings: HEK293FT cells; antagonist 10 μM; 100 nM AngII; no CCR2; FIG. 8 top
# Protocol: as §1, §2
# T2 sequence (P41597 whole entry, one chain of several): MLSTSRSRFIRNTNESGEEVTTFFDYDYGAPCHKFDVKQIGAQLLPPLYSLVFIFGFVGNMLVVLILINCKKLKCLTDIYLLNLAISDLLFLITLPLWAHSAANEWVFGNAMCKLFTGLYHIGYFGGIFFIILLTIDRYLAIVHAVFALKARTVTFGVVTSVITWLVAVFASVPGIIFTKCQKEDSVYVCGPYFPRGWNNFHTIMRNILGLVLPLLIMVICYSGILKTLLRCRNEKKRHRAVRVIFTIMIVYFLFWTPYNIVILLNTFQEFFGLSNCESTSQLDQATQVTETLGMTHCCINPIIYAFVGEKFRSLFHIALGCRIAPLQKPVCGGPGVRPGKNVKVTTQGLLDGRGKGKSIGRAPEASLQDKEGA
# T1 sequence (P41597 whole entry, one chain of several): as above
# CCR2-Rluc8 and HA-tagged AT1R, sequence (P41597 whole entry, one chain of several): as above
Compound,"inflammation in mouse models of multiple sclerosis, renal ischemia-reperfusion injury, ureter obstruction, diabetic nephropathy and a rat model of arthritis [4]","MCP-1-induced BRET, CCR2-Rluc8, β-arrestin2-Venus and HA-tagged AT1R ([5]; antagonist 10 μM)","AngII-induced IP1 production, cells expressing AT1R-Rluc8 (AT1R-Rluc8 [6])","MCP-1-induced BRET, AT1R-Rluc8, β-arrestin2-Venus and untagged CCR2 ([1]; antagonist 10 μM)","AngII-induced BRET response, AT1R-Rluc8 and β-arrestin2-Venus (AT1R-Rluc8 [7])","AngII-induced IP1 production, cells co-expressing AT1R-Rluc8 and CCR2 (AT1R-Rluc8 and CCR2 [3])","MCP-1-induced IP1 production, cells co-expressing AT1R-Rluc8 and CCR2 (AT1R-Rluc8 and CCR2 [3])",further results
C[C@H](CS)C(=O)N1CCC[C@H]1C(=O)O [captopril],,,,,,,,progression of diabetic nephropathy (diabetic nephropathy): did not halt the progression of diabetic nephropathy in the vast majority of patients
"MCP-1: Monocyte chemotactic protein-1, also known as monocyte chemoattractant protein-1",,,,,,,,"agonist-induced BRET, AT1R-Rluc8, β-arrestin2-Venus and untagged CCR2 ([1]; 100 nM agonist): induced BRET increases to different degrees; agonist-stimulated IP1 response, cells co-expressing AT1R-Rluc8 and CCR2 (AT1R-Rluc8 and CCR2 [2]; 100 nM agonist): seems to stimulate a partial IP1 response; agonist-stimulated IP1 response, cells co-expressing AT1R-Rluc8 and CCR2 (AT1R-Rluc8 and CCR2 [3]; 100 nM agonist): seems to stimulate a partial IP1 response"
3-oxygermylpropionic acid polymer [Propagermanium],suppress inflammation,,,,,,,MCP-1 binding (MCP-1): does not inhibit; in vitro chemotactic migration of monocytes by MCP-1 (monocytes): specifically inhibit; also recorded: inhibits
"CCCCC1=NC2(CCCC2)C(=O)N1Cc1ccc(-c2ccccc2-c2nn[nH]n2)cc1 [Irbesartan, 2-butyl-3-({4-[2-(2H-1,2,3,4-tetrazol-5-yl)phenyl]phenyl}methyl)-1,3-diazaspiro[4.4]non-1-en-4-one]",,not the MCP-1-promoted BRET signal,substantially abolished,not the MCP-1-induced BRET,substantially blocked,substantially inhibiting,partially reduced,"AngII-induced BRET, CCR2-Rluc8, β-arrestin2-Venus and HA-tagged AT1R ([5]; antagonist 10 μM, 100 nM AngII): partially blocked; AngII-induced BRET, AT1R-Rluc8, β-arrestin2-Venus and untagged CCR2 ([1]; antagonist 10 μM, 100 nM AngII): substantially block"
CCO[C@H]1CN(C2CCC(O)(c3ccc4c(c3)OCO4)CC2)C[C@@H]1NC(=O)CNC(=O)c1cccc(C(F)(F)F)c1 (stereo partly drawn) [INCB3344],suppress inflammation,,,,,,,
Cc1ccc2c(c1)C1(CCN(CCc3nc(-c4ccccc4)oc3C)CC1)OC(=O)N2 [RS504393],suppress inflammation,substantially inhibited,"not RS504393, substantially abolished",partially blocked,not RS504393 substantially blocked,little effect,substantially and selectively inhibited,"BRET response with combined treatment with MCP-1 and AngII, CCR2-Rluc8 and HA-tagged AT1R ([5]; antagonist(s) 10 μM, 100 nM MCP-1 and AngII): a substantial BRET signal remained; AngII-induced IP1 production, cells expressing AT1R-Rluc8 (AT1R-Rluc8 [8]): not RS504393, abolished; AngII-induced IP1 production, cells co-expressing AT1R-Rluc8 and CCR2 (AT1R-Rluc8 and CCR2 [2]; antagonist 10 μM, 100 nM AngII): little effect; MCP-1-induced IP1 response, cells co-expressing AT1R-Rluc8 and CCR2 (AT1R-Rluc8 and CCR2 [2]; antagonist 10 μM, 100 nM MCP-1): substantially and selectively inhibited"
